# Publication PMC9532703, “A novel small molecule RK-019 inhibits FGFR2-amplification gastric cancer cell proliferation and induces apoptosis in vitro and in vivo” (Frontiers in Pharmacology, 2022)
# Tests used:
# Test in all cases: Kinase selectivity panel
# Format in all cases: biochemical
# [1] = biological target: T1, TAO2(h) (Homo sapiens, UniProt Q9UL54); details: read-out: Inhibition(%) @ 1 µM RK-019
# T1 construct: purchased Eurofins Discovery Services (KinaseProfiler)
# Summary of the method: (§1)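 Recombinant human kinase incubated with 1 µM compound; ATP-site competition binding quantified in vitro as inhibition ratio.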
# [2] = biological target: T2, MEKK3(h) (Homo sapiens, UniProt Q99759); details: read-out: Inhibition(%) @ 1 µM RK-019
# T2 construct: purchased Eurofins Discovery Services (KinaseProfiler)
# Summary of the method: as §1
# [3] = biological target: T3, Lck(h) (Homo sapiens, UniProt P06239); details: read-out: Inhibition(%) @ 1 µM RK-019
# T3 construct: purchased Eurofins Discovery Services (KinaseProfiler)
# Summary of the method: as §1
# [4] = biological target: T4, MARK1(h) (Homo sapiens, UniProt Q9P0L2); details: read-out: Inhibition(%) @ 1 µM RK-019
# T4 construct: purchased Eurofins Discovery Services (KinaseProfiler)
# Summary of the method: as §1
# [5] = biological target: T5, Ron(h) (Homo sapiens, UniProt Q04912); details: read-out: Inhibition(%) @ 1 µM RK-019
# T5 construct: purchased Eurofins Discovery Services (KinaseProfiler)
# T5 sequence (Q04912 25-1400): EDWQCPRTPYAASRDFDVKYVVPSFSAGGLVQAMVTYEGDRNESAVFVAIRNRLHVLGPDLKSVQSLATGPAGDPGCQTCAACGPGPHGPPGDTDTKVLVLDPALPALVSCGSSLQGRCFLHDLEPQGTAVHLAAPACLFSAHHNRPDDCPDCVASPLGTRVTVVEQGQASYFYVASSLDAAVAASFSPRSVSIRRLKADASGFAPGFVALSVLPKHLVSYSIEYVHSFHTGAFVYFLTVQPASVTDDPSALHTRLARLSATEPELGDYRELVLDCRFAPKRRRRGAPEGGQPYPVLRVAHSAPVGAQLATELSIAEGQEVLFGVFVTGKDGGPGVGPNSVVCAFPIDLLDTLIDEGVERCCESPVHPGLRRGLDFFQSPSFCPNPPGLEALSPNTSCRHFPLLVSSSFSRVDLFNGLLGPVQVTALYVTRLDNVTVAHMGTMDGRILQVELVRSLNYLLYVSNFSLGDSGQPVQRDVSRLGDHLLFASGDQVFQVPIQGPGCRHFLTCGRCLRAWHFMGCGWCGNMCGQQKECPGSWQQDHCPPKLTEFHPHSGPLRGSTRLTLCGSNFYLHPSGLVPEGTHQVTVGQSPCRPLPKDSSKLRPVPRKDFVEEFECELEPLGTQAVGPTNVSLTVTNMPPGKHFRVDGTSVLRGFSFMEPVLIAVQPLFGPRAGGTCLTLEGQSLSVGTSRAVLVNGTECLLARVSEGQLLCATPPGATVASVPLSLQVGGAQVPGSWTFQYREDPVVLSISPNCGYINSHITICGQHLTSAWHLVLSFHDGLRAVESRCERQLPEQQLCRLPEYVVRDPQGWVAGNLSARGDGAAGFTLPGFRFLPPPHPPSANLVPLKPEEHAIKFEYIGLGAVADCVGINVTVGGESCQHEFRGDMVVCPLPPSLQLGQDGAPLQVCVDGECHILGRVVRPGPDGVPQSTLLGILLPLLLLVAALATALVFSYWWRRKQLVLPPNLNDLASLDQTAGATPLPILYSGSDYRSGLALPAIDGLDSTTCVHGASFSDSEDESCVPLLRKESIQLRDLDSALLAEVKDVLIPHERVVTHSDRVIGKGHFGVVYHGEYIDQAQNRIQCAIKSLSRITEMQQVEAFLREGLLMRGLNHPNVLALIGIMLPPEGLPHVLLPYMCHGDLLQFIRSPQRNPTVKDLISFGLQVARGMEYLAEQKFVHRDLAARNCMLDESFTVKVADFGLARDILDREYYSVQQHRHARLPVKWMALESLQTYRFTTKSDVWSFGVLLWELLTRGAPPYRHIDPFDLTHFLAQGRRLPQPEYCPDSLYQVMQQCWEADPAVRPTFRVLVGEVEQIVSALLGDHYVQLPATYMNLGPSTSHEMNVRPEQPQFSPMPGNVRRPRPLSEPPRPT
# Summary of the method: as §1
# [6] = biological target: T6, Rsk3(h) (Homo sapiens, UniProt Q15349); details: read-out: Inhibition(%) @ 1 µM RK-019
# T6 construct: purchased Eurofins Discovery Services (KinaseProfiler)
# Summary of the method: as §1
# [7] = biological target: T7, CHK2(R145W)(h) (Homo sapiens, UniProt O96017, R145W); details: read-out: Inhibition(%) @ 1 µM RK-019
# T7 construct: purchased Eurofins Discovery Services (KinaseProfiler)
# Summary of the method: as §1
# [8] = biological target: T8, Aurora-A(h) (Homo sapiens, UniProt O14965); details: read-out: Inhibition(%) @ 1 µM RK-019
# T8 construct: purchased Eurofins Discovery Services (KinaseProfiler)
# T8 sequence (O14965 whole entry): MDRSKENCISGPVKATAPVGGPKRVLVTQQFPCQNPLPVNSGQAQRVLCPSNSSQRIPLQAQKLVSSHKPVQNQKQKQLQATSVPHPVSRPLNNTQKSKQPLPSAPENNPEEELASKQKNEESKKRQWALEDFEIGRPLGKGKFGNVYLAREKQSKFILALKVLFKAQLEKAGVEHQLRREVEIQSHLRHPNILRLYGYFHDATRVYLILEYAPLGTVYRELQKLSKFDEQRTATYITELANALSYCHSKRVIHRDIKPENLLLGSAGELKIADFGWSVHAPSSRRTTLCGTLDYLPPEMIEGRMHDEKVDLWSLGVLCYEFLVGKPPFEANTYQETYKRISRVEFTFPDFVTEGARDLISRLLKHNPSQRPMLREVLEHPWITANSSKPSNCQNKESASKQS
# Summary of the method: as §1
# [9] = biological target: T9, Fgr(h) (Homo sapiens, UniProt P09769); details: read-out: Inhibition(%) @ 1 µM RK-019
# T9 construct: purchased Eurofins Discovery Services (KinaseProfiler)
# Summary of the method: as §1
# [10] = biological target: T10, Itk(h) (Homo sapiens, UniProt Q08881); details: read-out: Inhibition(%) @ 1 µM RK-019
# T10 construct: purchased Eurofins Discovery Services (KinaseProfiler)
# Summary of the method: as §1
# [11] = biological target: T11, CK1γ3(h) (Homo sapiens, UniProt Q9Y6M4); details: read-out: Inhibition(%) @ 1 µM RK-019
# T11 construct: purchased Eurofins Discovery Services (KinaseProfiler)
# Summary of the method: as §1
# [12] = biological target: T12, MSK2(h) (Homo sapiens, UniProt O75676); details: read-out: Inhibition(%) @ 1 µM RK-019
# T12 construct: purchased Eurofins Discovery Services (KinaseProfiler)
# T12 sequence (O75676 whole entry): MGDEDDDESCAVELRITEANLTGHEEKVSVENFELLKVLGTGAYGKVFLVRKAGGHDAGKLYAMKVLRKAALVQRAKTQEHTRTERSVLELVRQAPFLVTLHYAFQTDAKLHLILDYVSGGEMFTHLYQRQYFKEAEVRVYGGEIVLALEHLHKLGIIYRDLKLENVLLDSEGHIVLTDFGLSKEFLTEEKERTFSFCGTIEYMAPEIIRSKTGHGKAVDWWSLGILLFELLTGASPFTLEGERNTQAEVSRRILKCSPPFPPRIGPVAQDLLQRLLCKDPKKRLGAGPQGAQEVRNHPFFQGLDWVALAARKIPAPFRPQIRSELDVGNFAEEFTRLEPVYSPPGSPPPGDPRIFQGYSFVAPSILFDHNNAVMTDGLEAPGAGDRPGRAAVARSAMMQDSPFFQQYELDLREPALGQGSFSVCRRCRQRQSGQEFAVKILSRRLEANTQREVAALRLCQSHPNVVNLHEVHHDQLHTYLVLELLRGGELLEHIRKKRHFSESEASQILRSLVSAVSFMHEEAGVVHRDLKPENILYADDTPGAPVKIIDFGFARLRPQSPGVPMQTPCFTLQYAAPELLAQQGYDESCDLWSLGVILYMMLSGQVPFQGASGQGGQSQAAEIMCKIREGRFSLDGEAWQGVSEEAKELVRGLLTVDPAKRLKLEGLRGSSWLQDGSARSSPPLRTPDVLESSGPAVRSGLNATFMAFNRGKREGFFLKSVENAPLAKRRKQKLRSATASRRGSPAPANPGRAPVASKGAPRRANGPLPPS
# Summary of the method: as §1
# [13] = biological target: T13, CDK6/cyclinD3(h) (Homo sapiens, UniProt Q00534); details: read-out: Inhibition(%) @ 1 µM RK-019
# T13 construct: purchased Eurofins Discovery Services (KinaseProfiler)
# Summary of the method: as §1
# [14] = biological target: T14, Ret(V804M)(h) (Homo sapiens, UniProt P07949, V804M); details: read-out: Inhibition(%) @ 1 µM RK-019
# T14 construct: purchased Eurofins Discovery Services (KinaseProfiler)
# Summary of the method: as §1
# [15] = biological target: T15, BrSK2(h) (Homo sapiens, UniProt Q8IWQ3); details: read-out: Inhibition(%) @ 1 µM RK-019
# T15 construct: purchased Eurofins Discovery Services (KinaseProfiler)
# Summary of the method: as §1
# [16] = biological target: T16, MLCK(h) (Homo sapiens, UniProt Q15746); details: read-out: Inhibition(%) @ 1 µM RK-019
# T16 construct: purchased Eurofins Discovery Services (KinaseProfiler)
# Summary of the method: as §1
# [17] = biological target: T17, FGFR2(h) (Homo sapiens, UniProt P21802)
# T17 construct: purchased Eurofins Discovery Services (KinaseProfiler)
# T17 sequence (P21802 22-821): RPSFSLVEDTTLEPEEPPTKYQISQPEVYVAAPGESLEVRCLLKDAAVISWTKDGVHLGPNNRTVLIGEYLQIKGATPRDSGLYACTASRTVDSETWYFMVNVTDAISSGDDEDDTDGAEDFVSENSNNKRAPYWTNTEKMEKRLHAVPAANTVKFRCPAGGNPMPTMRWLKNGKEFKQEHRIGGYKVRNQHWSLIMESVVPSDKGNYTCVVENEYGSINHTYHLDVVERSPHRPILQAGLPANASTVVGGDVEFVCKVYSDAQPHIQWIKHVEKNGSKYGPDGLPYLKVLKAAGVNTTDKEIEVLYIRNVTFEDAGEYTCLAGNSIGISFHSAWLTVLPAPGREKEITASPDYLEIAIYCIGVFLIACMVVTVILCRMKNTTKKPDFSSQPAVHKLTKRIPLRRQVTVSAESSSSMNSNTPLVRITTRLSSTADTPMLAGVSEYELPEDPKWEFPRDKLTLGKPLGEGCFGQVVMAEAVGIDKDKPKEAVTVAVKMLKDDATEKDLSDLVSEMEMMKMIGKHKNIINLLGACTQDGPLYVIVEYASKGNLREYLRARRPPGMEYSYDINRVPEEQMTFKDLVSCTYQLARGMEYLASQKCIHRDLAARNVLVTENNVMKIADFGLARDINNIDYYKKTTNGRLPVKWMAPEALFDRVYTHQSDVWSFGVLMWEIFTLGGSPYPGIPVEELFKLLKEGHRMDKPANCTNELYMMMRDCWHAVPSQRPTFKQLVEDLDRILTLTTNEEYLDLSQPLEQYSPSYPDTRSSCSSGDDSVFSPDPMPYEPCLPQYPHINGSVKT
# Summary of the method: as §1
# [18] = biological target: T18, IR(h), activated (Homo sapiens, UniProt P06213); details: read-out: Inhibition(%) @ 1 µM RK-019
# T18 construct: purchased Eurofins Discovery Services (KinaseProfiler)
# Summary of the method: as §1
# [19] = biological target: T19, mTOR(h) (Homo sapiens, UniProt P42345); details: read-out: Inhibition(%) @ 1 µM RK-019
# T19 construct: purchased Eurofins Discovery Services (KinaseProfiler)
# Summary of the method: as §1
# [20] = biological target: T20, STK16(h) (Homo sapiens, UniProt O75716); details: read-out: Inhibition(%) @ 1 µM RK-019
# T20 construct: purchased Eurofins Discovery Services (KinaseProfiler)
# T20 sequence (O75716 whole entry): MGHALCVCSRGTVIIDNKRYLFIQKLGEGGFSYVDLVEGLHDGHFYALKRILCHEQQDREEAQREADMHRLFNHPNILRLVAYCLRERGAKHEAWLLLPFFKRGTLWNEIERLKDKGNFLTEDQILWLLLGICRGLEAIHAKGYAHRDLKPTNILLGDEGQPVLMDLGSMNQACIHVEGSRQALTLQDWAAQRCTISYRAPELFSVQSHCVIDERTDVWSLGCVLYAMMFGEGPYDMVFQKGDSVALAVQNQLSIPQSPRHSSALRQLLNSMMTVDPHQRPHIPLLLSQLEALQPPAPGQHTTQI
# Summary of the method: as §1
# [21] = biological target: T21, LOK(h) (Homo sapiens, UniProt O94804); details: read-out: Inhibition(%) @ 1 µM RK-019
# T21 construct: purchased Eurofins Discovery Services (KinaseProfiler)
# Summary of the method: as §1
# [22] = biological target: T22, PI3KC2g(h) (Homo sapiens, UniProt O75747); details: read-out: Inhibition(%) @ 1 µM RK-019
# T22 construct: purchased Eurofins Discovery Services (KinaseProfiler)
# Summary of the method: as §1
# [23] = biological target: T23, ChaK1(h) (Homo sapiens, UniProt Q96QT4); details: read-out: Inhibition(%) @ 1 µM RK-019
# T23 construct: purchased Eurofins Discovery Services (KinaseProfiler)
# Summary of the method: as §1
# [24] = biological target: T24, PI3 Kinase (p110a(E545K)/p85a)(h) (Homo sapiens, UniProt P42336, E545K); details: read-out: Inhibition(%) @ 1 µM RK-019
# T24 construct: purchased Eurofins Discovery Services (KinaseProfiler)
# Summary of the method: as §1
# [25] = biological target: T25, PAK1(h) (Homo sapiens, UniProt Q13153); details: read-out: Inhibition(%) @ 1 µM RK-019
# T25 construct: purchased Eurofins Discovery Services (KinaseProfiler)
# Summary of the method: as §1
# [26] = biological target: T26, CDK12/cyclinK(h) (Homo sapiens, UniProt Q9NYV4); details: read-out: Inhibition(%) @ 1 µM RK-019
# T26 construct: purchased Eurofins Discovery Services (KinaseProfiler)
# Summary of the method: as §1
# [27] = biological target: T27, cKit(h) (Homo sapiens, UniProt P10721); details: read-out: Inhibition(%) @ 1 µM RK-019
# T27 construct: purchased Eurofins Discovery Services (KinaseProfiler)
# Summary of the method: as §1
# [28] = biological target: T28, CaMKIV(h) (Homo sapiens, UniProt Q16566); details: read-out: Inhibition(%) @ 1 µM RK-019
# T28 construct: purchased Eurofins Discovery Services (KinaseProfiler)
# Summary of the method: as §1
# [29] = biological target: T29, CDK1/cyclinB(h) (Homo sapiens, UniProt P06493); details: read-out: Inhibition(%) @ 1 µM RK-019
# T29 construct: purchased Eurofins Discovery Services (KinaseProfiler)
# T29 sequence (P06493 whole entry): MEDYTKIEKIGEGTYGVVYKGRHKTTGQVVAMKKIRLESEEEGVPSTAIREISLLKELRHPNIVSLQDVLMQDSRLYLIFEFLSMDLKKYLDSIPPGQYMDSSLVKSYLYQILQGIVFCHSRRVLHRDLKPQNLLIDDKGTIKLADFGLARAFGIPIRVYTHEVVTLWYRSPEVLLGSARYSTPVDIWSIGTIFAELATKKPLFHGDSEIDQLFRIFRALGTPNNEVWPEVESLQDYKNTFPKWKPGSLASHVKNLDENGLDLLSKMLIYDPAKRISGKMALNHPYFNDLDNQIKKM
# T29 sequence (P14635 whole entry partner): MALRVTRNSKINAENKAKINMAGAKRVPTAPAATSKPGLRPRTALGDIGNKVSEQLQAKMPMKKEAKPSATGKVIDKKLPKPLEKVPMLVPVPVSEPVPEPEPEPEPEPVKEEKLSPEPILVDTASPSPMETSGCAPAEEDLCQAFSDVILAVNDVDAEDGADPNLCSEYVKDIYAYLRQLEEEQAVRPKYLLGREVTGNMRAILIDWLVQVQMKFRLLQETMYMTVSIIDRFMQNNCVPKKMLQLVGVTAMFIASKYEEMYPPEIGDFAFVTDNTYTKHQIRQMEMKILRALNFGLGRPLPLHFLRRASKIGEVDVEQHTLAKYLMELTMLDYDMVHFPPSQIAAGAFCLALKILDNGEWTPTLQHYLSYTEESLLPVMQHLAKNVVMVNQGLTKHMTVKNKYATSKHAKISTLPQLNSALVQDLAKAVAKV
# Summary of the method: as §1
# [30] = biological target: T30, SNRK(h) (Homo sapiens, UniProt Q9NRH2); details: read-out: Inhibition(%) @ 1 µM RK-019
# T30 construct: purchased Eurofins Discovery Services (KinaseProfiler)
# Summary of the method: as §1
# [31] = biological target: T31, PI3KC2a(h) (Homo sapiens, UniProt O00443); details: read-out: Inhibition(%) @ 1 µM RK-019
# T31 construct: purchased Eurofins Discovery Services (KinaseProfiler)
# Summary of the method: as §1
# [32] = biological target: T32, IRE1(h) (Homo sapiens, UniProt O75460); details: read-out: Inhibition(%) @ 1 µM RK-019
# T32 construct: purchased Eurofins Discovery Services (KinaseProfiler)
# Summary of the method: as §1
# [33] = biological target: T33, Tie2(Y897S)(h) (Homo sapiens, UniProt Q02763, Y897S); details: read-out: Inhibition(%) @ 1 µM RK-019
# T33 construct: purchased Eurofins Discovery Services (KinaseProfiler)
# Summary of the method: as §1
# [34] = biological target: T34, CaMKIγ(h) (Homo sapiens, UniProt Q96NX5); details: read-out: Inhibition(%) @ 1 µM RK-019
# T34 construct: purchased Eurofins Discovery Services (KinaseProfiler)
# T34 sequence (Q96NX5 whole entry): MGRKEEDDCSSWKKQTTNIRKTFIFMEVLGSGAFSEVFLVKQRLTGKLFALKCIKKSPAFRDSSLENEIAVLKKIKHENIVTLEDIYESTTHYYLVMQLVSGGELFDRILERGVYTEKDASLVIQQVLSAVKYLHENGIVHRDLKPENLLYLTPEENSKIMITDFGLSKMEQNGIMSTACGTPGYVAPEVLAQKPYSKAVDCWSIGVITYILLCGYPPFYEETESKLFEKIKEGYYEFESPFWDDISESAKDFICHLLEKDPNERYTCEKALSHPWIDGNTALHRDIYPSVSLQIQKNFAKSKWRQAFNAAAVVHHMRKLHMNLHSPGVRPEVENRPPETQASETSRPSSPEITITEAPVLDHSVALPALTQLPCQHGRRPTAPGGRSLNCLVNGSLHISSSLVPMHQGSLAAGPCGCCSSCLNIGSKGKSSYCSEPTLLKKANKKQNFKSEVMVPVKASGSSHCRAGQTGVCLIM
# Summary of the method: as §1
# [35] = biological target: T35, MAPK1(h) (Homo sapiens, UniProt P27361); details: read-out: Inhibition(%) @ 1 µM RK-019
# T35 construct: purchased Eurofins Discovery Services (KinaseProfiler)
# Summary of the method: as §1
# [36] = biological target: T36, Aurora-C(h) (Homo sapiens, UniProt Q9UQB9); details: read-out: Inhibition(%) @ 1 µM RK-019
# T36 construct: purchased Eurofins Discovery Services (KinaseProfiler)
# Summary of the method: as §1
smiles,measurement,setting,value
"COc1cc(OC)cc(N(CCN[C@H](C)CO)c2ccc3ncc(-c4cnn(C)c4)c(=O)n3c2)c1 [RK-019, (R)-7-((3,5-dimethoxyphenyl) (2-((1-hydroxypropan-2-yl)amino)ethyl)amino)-3-(1-methyl-1H-pyrazol-4-yl)-4H-pyrido [1,2-a]pyrimidin-4-one]",activity at 1 µM,[1],95%
same,activity at 1 µM,[2],103%
same,activity at 1 µM,[3],30%
same,activity at 1 µM,[4],93%
same,activity at 1 µM,[5],124%
same,activity at 1 µM,[6],100%
same,activity at 1 µM,[7],100%
same,activity at 1 µM,[8],133%
same,activity at 1 µM,[9],54%
same,activity at 1 µM,[10],104%
same,activity at 1 µM,[11],87%
same,activity at 1 µM,[12],101%
same,activity at 1 µM,[13],106%
same,activity at 1 µM,[14],56%
same,activity at 1 µM,[15],96%
same,activity at 1 µM,[16],92%
same,activity at 1 µM,"[17]; FGFR2(h), read-out: Inhibition(%) @ 1 µM RK-019",1%
same,inhibition at 1 µM,"[17]; FGFR2, 1 µM, read-out: inhibition (hit in panel)",> 90%
same,activity at 1 µM,[18],95%
same,activity at 1 µM,[19],105%
same,activity at 1 µM,[20],113%
same,activity at 1 µM,[21],76%
same,activity at 1 µM,[22],102%
same,activity at 1 µM,[23],100%
same,activity at 1 µM,[24],100%
same,activity at 1 µM,[25],102%
same,activity at 1 µM,[26],109%
same,activity at 1 µM,[27],73%
same,activity at 1 µM,[28],113%
same,activity at 1 µM,[29],99%
same,activity at 1 µM,[30],92%
same,activity at 1 µM,[31],104%
same,activity at 1 µM,[32],93%
same,activity at 1 µM,[33],77%
same,activity at 1 µM,[34],93%
same,activity at 1 µM,[35],116%
same,activity at 1 µM,[36],86%
